This is an account of results in PubChem BioAssay (NCI).

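Cultured in 96-well plates, cells were exposed to test compound for 48 hours across five concentrations. The concentration for 50% growth inhibition is given as GI50. At the TGI there is no net growth.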 Some results are limits rather than exact numbers.

Among the test systems are HL-60(TB) leukemia; SF-295 CNS; SK-MEL-28 melanoma; HOP-62 NSCLC; A498 renal; KM12 colon; UACC-62 melanoma; SN12C renal; NCI-H460 lung; OVCAR-4 ovarian; TK-10 renal; SNB-75 CNS; CAKI-1 renal; MDA-N; SNB-19 CNS; EKVX NSCLC; DU-145 prostate.
Common to all, as to assay: growth of human tumour cells (NCI), 48 h

Take `c1ccc(C2OCCO2)c(OCCOc2cc(OCCOc3ccccc3C3OCCO3)c(OCCOc3ccccc3C3OCCO3)cc2OCCOc2ccccc2C2OCCO2)c1`: the TGI in the experiment on HL-60(TB) leukemia is over 100 µM; with SF-295 CNS, over 100 µM; in the experiment on SK-MEL-28 melanoma it was over 100 µM; in the experiment on HOP-62 NSCLC, 28.6 µM; in the experiment on A498 renal, 35.4 µM; with KM12 colon, over 100 µM. The TGI in the experiment with UACC-62 melanoma was 37.6 µM; in the experiment on SN12C renal, over 100 µM; in the experiment on NCI-H460 lung, over 100 µM; in the experiment with OVCAR-4 ovarian it was 30.2 µM; in the experiment on TK-10 renal it was 31.4 µM; in the experiment on SNB-75 CNS, 7.06 µM. The compound also yielded a TGI in the experiment with CAKI-1 renal of over 100 µM.
For `CC(C)CCc1n[nH]c(=O)n1/N=C\c1ccccc1`, the TGI in the experiment with SF-295 CNS, with SK-MEL-28 melanoma, with MDA-N, with SNB-19 CNS, with HOP-62 NSCLC and in the experiment with A498 renal was over 100 µM throughout. Further, the TGI in the experiment on EKVX NSCLC, in the experiment with DU-145 prostate, in the experiment with KM12 colon, in the experiment with UACC-62 melanoma, in the experiment on SN12C renal and in the experiment with NCI-H460 lung was over 100 µM each time. In addition, the TGI with OVCAR-4 ovarian, with TK-10 renal and in the experiment on SNB-75 CNS was over 100 µM throughout.
As to `COC(=O)C1=C(C)NC(C)=C(C(=O)OC)C1c1cccc(NO)c1`, the TGI with SF-295 CNS is 83.1 µM; with SK-MEL-28 melanoma it was 28.3 µM; in the experiment with MDA-N it was 28.5 µM; in the experiment on SNB-19 CNS it was over 100 µM; in the experiment with HOP-62 NSCLC, over 100 µM; with A498 renal, over 100 µM. The TGI in the experiment with EKVX NSCLC is 70.9 µM; with DU-145 prostate, over 100 µM; in the experiment on KM12 colon, 29.4 µM; in the experiment on UACC-62 melanoma it was 34.3 µM; in the experiment with SN12C renal, 32.9 µM; in the experiment on NCI-H460 lung, 31.4 µM. Further, the TGI in the experiment on OVCAR-4 ovarian came to 27.8 µM; in the experiment on TK-10 renal it was 27.7 µM; in the experiment with CAKI-1 renal it was 26.1 µM.
As for `O=C(CNC(=O)OCc1ccccc1)NCCCCC(NC(=O)OCc1ccccc1)C(=O)NC(CCCCNC(=O)CNC(=O)OCc1ccccc1)C(=O)OCc1ccccc1` (configuration not stated), the TGI in the experiment with HL-60(TB) leukemia, with SK-MEL-28 melanoma, in the experiment with SNB-19 CNS, in the experiment on HOP-62 NSCLC, with A498 renal and in the experiment with DU-145 prostate was over 62.5 µM each time. For the same compound, the TGI in the experiment on UACC-62 melanoma, in the experiment with SN12C renal, with NCI-H460 lung, in the experiment on OVCAR-4 ovarian, in the experiment with TK-10 renal and in the experiment with SNB-75 CNS was over 62.5 µM in each case. Moreover, the TGI in the experiment on CAKI-1 renal was over 62.5 µM.
In the case of `Cc1ccc2c(C)c3ccc4ccccc4c3c[n+]2c1`, the TGI in the experiment with HL-60(TB) leukemia is over 100 µM; in the experiment with SF-295 CNS it was over 81.1 µM; in the experiment on SK-MEL-28 melanoma, 33 µM; with SNB-19 CNS it was 40.8 µM; with HOP-62 NSCLC, 51.2 µM; in the experiment with A498 renal, over 100 µM. In addition, the TGI with EKVX NSCLC is over 100 µM; with KM12 colon, 14.6 µM; with UACC-62 melanoma, 27.4 µM; in the experiment on SN12C renal, 24 µM; in the experiment on NCI-H460 lung it was 35.2 µM; in the experiment with OVCAR-4 ovarian, 45.4 µM. Further, the TGI is over 100 µM in the experiment on TK-10 renal, 25.9 µM with SNB-75 CNS and over 100 µM in the experiment on CAKI-1 renal.
Take `CC(C)(C)OC(=O)N(CCNS(=O)(=O)c1cccc2cnccc12)CCC(=O)ON1C(=O)CCC1=O`: the TGI in the experiment with SF-295 CNS, in the experiment with SK-MEL-28 melanoma, with SNB-19 CNS, with HOP-62 NSCLC, with EKVX NSCLC and in the experiment with DU-145 prostate was over 100 µM throughout. Also, the TGI in the experiment with UACC-62 melanoma, with SN12C renal, in the experiment on NCI-H460 lung, in the experiment on OVCAR-4 ovarian, in the experiment with TK-10 renal and in the experiment with SNB-75 CNS was over 100 µM in each case.
Consider `Cc1ccc(-c2c(C#N)c(N)nc3c2CCS(=O)(=O)c2ccccc2-3)cc1`, for which the TGI in the experiment with SK-MEL-28 melanoma, with MDA-N, with SNB-19 CNS, with A498 renal, in the experiment with DU-145 prostate and with KM12 colon was over 100 µM in each case. For the same compound, the TGI is over 100 µM in the experiment with UACC-62 melanoma; over 100 µM in the experiment on SN12C renal; over 100 µM in the experiment with NCI-H460 lung; over 100 µM in the experiment on OVCAR-4 ovarian; over 100 µM in the experiment on TK-10 renal; 78.9 µM in the experiment on SNB-75 CNS. In addition, the TGI with CAKI-1 renal was over 100 µM.
Regarding `O=c1c2cn[nH]c2nc2scc(-c3ccc(Cl)cc3)n12`, the TGI in the experiment on SF-295 CNS, in the experiment on SK-MEL-28 melanoma, in the experiment on MDA-N, with SNB-19 CNS, in the experiment with HOP-62 NSCLC and in the experiment with EKVX NSCLC was over 100 µM in each case. In addition, the TGI with KM12 colon, in the experiment with UACC-62 melanoma, in the experiment on SN12C renal, with NCI-H460 lung, in the experiment with OVCAR-4 ovarian and in the experiment with TK-10 renal was over 100 µM each time. Besides, the TGI in the experiment with SNB-75 CNS and in the experiment on CAKI-1 renal was over 100 µM in each case.
As for `CCOc1cc2c(cc1O)/C(=N/NS(=O)(=O)c1ccc(C)cc1)C[C@@H]1[C@@H]2CC[C@]2(C)[C@@H](O)CC[C@@H]12`, the TGI with SF-295 CNS, in the experiment with SK-MEL-28 melanoma, in the experiment with SNB-19 CNS, in the experiment on HOP-62 NSCLC, in the experiment on A498 renal and in the experiment with EKVX NSCLC was over 100 µM in each case. Besides, the TGI with DU-145 prostate, in the experiment with KM12 colon, in the experiment with SN12C renal, with NCI-H460 lung, in the experiment on OVCAR-4 ovarian and in the experiment with TK-10 renal was over 100 µM throughout. Moreover, the TGI with SNB-75 CNS was 67.7 µM; in the experiment with CAKI-1 renal, over 100 µM. Besides, the GI50 in the experiment with HOP-62 NSCLC is 5.14 µM; in the experiment on DU-145 prostate, 14.9 µM; in the experiment on SN12C renal, 12.1 µM.
